Results as given in patent US20220380341A1, “INHIBITORS OF HIV-1 NEF FOR THE TREATMENT OF HIV DISEASE” (priority 2018, published 2022).
Read-outs that look alike come from different tables or passages of the source.

Key:
TZM-bl cell line = format: cell-based; settings: human, 1 μM
Procedure, shortened: (§1)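 TZM-bl cells (HIV-1 LTR-luciferase) infected with HIV-1NL4-3 with compound at 1 μM; luciferase read 48 h later. Percent inhibition normalized to DMSO wild-type infection (0%) and Nef-defective HIV-1 infection (100% of Nef-dependent effect). Viability in uninfected TZM-bl cells by Cell Titer Blue.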

HIV-1 NefNL4-3 = HIV-1 NefNL4-3 (Human immunodeficiency virus type 1 group M subtype B, UniProt P03406, A33V/T15A/T51N/V11I); assay: Surface plasmon resonance binding to recombinant full-length Nef (NL4-3); settings: for T, minutes (residence time): 2-step induced fit, T = 1/koff2; for RU30/RUNef (extent of binding): response units at 30 μM relative to Nef immobilized on the SPR chip
HIV-1 NL4-3 = assay: HIV-1 replication in normal donor PBMCs (p24 Gag AlphaLISA); format: cell-based; settings: Table 1, 4 days; for IC50: Human immunodeficiency virus 1, NL43, PBMC, 96 h
Method: FIG. 4. Inhibition of HIV-1 replication by compounds disclosed herein in PBMCs. Donor PBMCs were infected with HIV-1 in the presence of inhibitor concentrations ranging from 1 to 1,000 nM or the DMSO carrier solvent as a negative control (0.1% DMSO final). Replication was assessed by p24 Gag AlphaLISA (Perkin Elmer) […]. Each donor was also infected with Nef-defective HIV-1 to establish the baseline for Nef-dependent enhancement of replication in each culture. Cytotoxicity was assessed in uninfected PBMCs over the same incubation period using the CellTiter-Blue assay (Promega). Data were fit by non-linear regression analysis (GraphPad Prism v.7.04) to determine the IC50 and CC50 values shown.
The tables also show data for HIV-1 Replication in normal donor peripheral blood mononuclear cells (PBMCs), which is assay is conducted as follows:
Non-HLA-typed buffy coats (Source: Pittsburgh Central Blood Bank, #E3755) are received and processed within 24 hours of blood donation. PBMCs are isolated via rocking for RBC separation following 1:1 dilution with PBS, followed by Ficoll gradient centrifugation. The lymphocyte fraction is removed and washed several times for a final concentration of ˜150-300×10^6 cells per donor. Cells are activated for 3 days with 1-5 μg/mL PHA (Sigma) and 50 U/mL IL-2. Cells are plated at 750,000 cells/ml and viability is checked at day 3 using the Cell Titer Blue assay (Promega). If cells are >90% viable, then they are infected with HIV-1 NL4-3, wild-type or Δ-Nef mutant (input typically 30-500 pg/mL p24 capsid equivalents) in the presence or absence of Nef inhibitor analogs. IL-2 is included in the media at the time of infection. After 4 days, cells are lysed with 1% Triton X-100 for 1.5 h, checked for viability via Cell Titer Blue, and frozen/stored at −20° C. HIV-1 replication is assessed with a high-sensitivity HIV-1 p24 AlphaLISA assay (Perkin Elmer) in ½-volume 96-well plates, using one-half of the recommended assay volumes for all reagents (including samples). Assays are read on the BioTek Cytation5 instrument; readout is in AlphaUnits and replication in p24 pg/mL is determined using an HIV-1 p24 capsid protein standard included in the Alpha kit.

HIV-1NL4-3 = assay: HIV-1 infectivity assay in TZM-bl reporter cell line (LTR-luciferase, 48 h); format: cell-based; settings: Human immunodeficiency virus 1, TZM-bl
Procedure, shortened: as §1

[1] = target: Nef from SIV (strain mac239) (Simian immunodeficiency virus, UniProt Q5QGG3); assay: biochemical
[2] = KD, M, Table 4, SPR fit 2-step induced fit, KD = koff/kon × koff2/(koff2 + kon2)
[3] = Nef NL4-3 Binding, SPR 2-state fitting KD, Table 1, 2-step induced-fit model
[4] = read-out: Nef NL4-3 Binding, SPR 1:1 or 2-site fitting KD2, Table 1, 2-site fit, second component
[5] = words (Not active, Borderline) where no bound is given
[6] = 1.0 μM, TZM-bl reporter cell line, Table 4, read-out: % Infectivity Inhibition
[7] = 48 h, Table 1, TZM-bl cells, 1 μM, 48 h, 100% = Nef-defective HIV-1, read-out: HIV-1 Infectivity % Inhibition Norm. to Δ-Nef @ 1 μM

Structure (SMILES)	% Cell Viability (TZM-bl cell line) [%]	Percent Viability @ 1 μM (TZM-bl cells) (TZM-bl cell line) [%]	Kd (HIV-1 NefNL4-3) [M]	Kd (HIV-1 NefNL4-3; [2]) [M]	Kd (HIV-1 NefNL4-3; [3]) [M]	T, minutes (residence time) (HIV-1 NefNL4-3; Table 4)	Kd (HIV-1 NefNL4-3; [4]) [M]	RU30/RUNef (extent of binding) (HIV-1 NefNL4-3)	HIV Replication PBMC IC50 vs. HIV NL4-3 (HIV-1 NL4-3; [5])	inhibition at 1 µM (HIV-1NL4-3; [6]) [%]	inhibition at 1 µM (HIV-1NL4-3; [7]) [%]	IC50 (HIV-1 NL4-3; [5]) [nM]	IC50 (HIV-1 NL4-3) [nM]	Kd (HIV-1 NefNL4-3; Reichert SPR Nef NL43 (M) two-step fitting, KD, two-step induced-fit model, Reichert SPR, Table 3) [M]	inhibition at 1 µM (HIV-1NL4-3; 1 μM, TZM-bl, normalized: DMSO wild-type HIV-1 = 0%, Nef-defective HIV-1 = 100%, read-out: HIV-1 Infectivity % Inhibition norm. to Δ-Nef @ 1 μM) [%]	Kd [1] [nM]
Oc1c(CCc2ccc(F)cc2)c(-c2ccc(C(F)(F)F)cn2)nn1-c1nc2cc(F)ccc2[nH]1 [Compound I-167, 1-(5-fluoro-1H-1,3-benzodiazol-2-yl)-4-[2-(4-fluorophenyl)ethyl]-3-[5-(trifluoromethyl)pyridin-2-yl]-1H-pyrazol-5-ol]	81.2	81.2	2.99e-07	2.02e-09	2.02e-09	5.05E + 03 minutes	1.74e-06	1.11E- 02	Not active	52.1	52.1	–	–	–	–	–
CC(C)(C)OC(=O)N1CCC(c2nn(-c3nc4ccccc4[nH]3)c(O)c2CCc2ccc(F)cc2)CC1 [Compound I-202, tert-butyl 4-[1-(1H-1,3-benzodiazol-2-yl)-4-[2-(4-fluorophenyl)ethyl]-5-hydroxy-1H-pyrazol-3-yl]piperidine-1-carboxylate]	79.2	79.2	–	6.05e-12	2.22e-06	6.36E + 06 minutes	–	4.09E- 03	Not active	100	105	–	–	–	–	–
CC(C)(C)OC(=O)N1CCC(CCc2c(-c3ccc(C(F)(F)F)cc3)nn(-c3nc4ccccc4[nH]3)c2O)CC1 [Compound I-204]	95.1	95.1	–	2.29e-11	2.29e-11	–	6.35e-11	–	–	5.8	5.8	≤ 1000	–	–	–	–
CC(C)(C)OC(=O)N1CCCCC1Cc1nn(-c2nc3ccccc3[nH]2)c(O)c1CCc1ccc(F)cc1 (centres unmarked) [Compound I-207, tert-butyl 2-{[1-(1H-1,3-benzodiazol-2-yl)-4-[2-(4-fluorophenyl)ethyl]-5-hydroxy-1H-pyrazol-3-yl]methyl}piperidine-1-carboxylate]	99.3	99.3	1.49e-09	–	–	–	8.09e-07	4.14E- 03	–	0	-9.4	–	≥ 1000	–	–	–
CC(C)(C)OC(=O)N1CCC(c2nn(-c3nc4ccc(Cl)cc4[nH]3)c(O)c2CCc2ccc(F)cc2)CC1 [Compound I-216, tert-butyl 4-[1-(5-chloro-1H-1,3-benzodiazol-2-yl)-4-[2-(4-fluorophenyl)ethyl]-5-hydroxy-1H-pyrazol-3-yl]piperidine-1-carboxylate]	87.1	87.1	1.24e-07	8.71e-12	8.71e-12	4.71E + 05 minutes	8.29e-07	1.60E- 02	Not active	100	176	–	–	–	–	–
CC(=O)N1CCC(Cc2c(-c3ccc(C(F)(F)F)cc3)nn(-c3nc4ccccc4[nH]3)c2O)CC1 [Compound I-720, 1-(4-{[1-(1H-1,3-benzodiazol-2-yl)-5-hydroxy-3-[4-(trifluoromethyl)phenyl]-1H-pyrazol-4-yl]methyl}piperidin-1-yl)ethan-1-one]	71.4	71.4	1.19e-06	1.81e-06	1.81e-06	1.32E + 00 minutes	–	2.80E- 03	–	92.2	92.2	–	–	1.81e-06	92.2	21.8
